According to PMC5513037, “Examining the influence of specificity ligands and ATP-competitive ligands on the overall effectiveness of bivalent kinase inhibitors” (Proteome Science, 2017):

Assays:
Assay in all cases: KAM-matrix competition in K562 lysate;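 on 0.001 uM KAM: median log10 fold change of treatment over DMSO control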;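 on 0.01 uM KAM: median log10 fold change of treatment over DMSO control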;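 on 0.1 uM KAM: median log10 fold change of treatment over DMSO control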;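 on 1 uM KAM: median log10 fold change of treatment over DMSO control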;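 on 10 uM KAM: median log10 fold change of treatment over DMSO control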
Format in all cases: binding
AURKB = biological target: T1, AURKB (Homo sapiens, UniProt Q96GD4)
T1 construct: endogenous in cells; host or cells: K562
T1 sequence (Q96GD4 whole entry): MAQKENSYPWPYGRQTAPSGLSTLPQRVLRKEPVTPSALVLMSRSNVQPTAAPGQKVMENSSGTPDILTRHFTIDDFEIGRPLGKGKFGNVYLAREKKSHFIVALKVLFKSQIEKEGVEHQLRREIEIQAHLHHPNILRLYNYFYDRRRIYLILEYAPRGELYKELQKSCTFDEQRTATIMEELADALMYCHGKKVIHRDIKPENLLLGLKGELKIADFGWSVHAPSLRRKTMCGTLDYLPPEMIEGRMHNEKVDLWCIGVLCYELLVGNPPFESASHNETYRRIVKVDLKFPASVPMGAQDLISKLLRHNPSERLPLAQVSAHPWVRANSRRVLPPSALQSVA
Method: (§1) Supplement 12953_2017_125_MOESM1_ESM.zip/MS_Supp Info.xlsx, sheet "KAM" | column: 10 uM KAM; 1 uM KAM; 0.1 uM KAM; 0.01 uM KAM; 0.001 uM KAM; RB50

BMPR2 = biological target: T2, BMPR2 (Homo sapiens, UniProt Q13873);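 on 0.001 uM KAM: median log10 fold change of treatment over DMSO control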;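 on 0.01 uM KAM: median log10 fold change of treatment over DMSO control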;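 on 0.1 uM KAM: median log10 fold change of treatment over DMSO control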;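 on 1 uM KAM: median log10 fold change of treatment over DMSO control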;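 on 10 uM KAM: median log10 fold change of treatment over DMSO control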
T2 construct: endogenous in cells; host or cells: K562
T2 sequence (Q13873 27-1038): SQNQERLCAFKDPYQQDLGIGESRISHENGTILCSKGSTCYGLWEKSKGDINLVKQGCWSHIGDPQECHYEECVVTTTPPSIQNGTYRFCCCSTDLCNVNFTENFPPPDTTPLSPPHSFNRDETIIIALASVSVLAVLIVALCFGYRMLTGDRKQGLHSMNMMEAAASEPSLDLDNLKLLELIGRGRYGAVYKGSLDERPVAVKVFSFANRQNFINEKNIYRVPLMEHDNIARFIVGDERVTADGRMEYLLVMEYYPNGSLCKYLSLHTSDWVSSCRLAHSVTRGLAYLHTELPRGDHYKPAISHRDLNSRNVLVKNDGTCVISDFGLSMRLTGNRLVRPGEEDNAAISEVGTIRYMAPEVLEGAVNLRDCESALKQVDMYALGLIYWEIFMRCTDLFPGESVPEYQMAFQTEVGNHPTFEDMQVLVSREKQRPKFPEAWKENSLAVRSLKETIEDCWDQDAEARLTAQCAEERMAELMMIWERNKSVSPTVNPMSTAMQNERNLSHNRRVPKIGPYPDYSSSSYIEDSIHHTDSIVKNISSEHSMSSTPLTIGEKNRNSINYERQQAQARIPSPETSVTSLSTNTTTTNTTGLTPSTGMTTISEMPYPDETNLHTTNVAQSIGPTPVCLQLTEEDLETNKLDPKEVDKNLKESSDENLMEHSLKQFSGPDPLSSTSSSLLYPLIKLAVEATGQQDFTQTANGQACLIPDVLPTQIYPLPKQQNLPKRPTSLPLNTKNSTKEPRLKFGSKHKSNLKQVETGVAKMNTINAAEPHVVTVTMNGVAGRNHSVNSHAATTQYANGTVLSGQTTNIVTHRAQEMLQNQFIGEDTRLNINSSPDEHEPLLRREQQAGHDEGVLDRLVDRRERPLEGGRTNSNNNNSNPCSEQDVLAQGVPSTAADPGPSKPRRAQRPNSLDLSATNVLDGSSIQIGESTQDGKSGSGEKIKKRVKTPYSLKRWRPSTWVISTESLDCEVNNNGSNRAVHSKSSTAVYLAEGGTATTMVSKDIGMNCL
Method: as §1

CDK13 = biological target: T3, CDK13 (Homo sapiens, UniProt Q14004)
T3 construct: endogenous in cells; host or cells: K562
T3 sequence (Q14004 whole entry): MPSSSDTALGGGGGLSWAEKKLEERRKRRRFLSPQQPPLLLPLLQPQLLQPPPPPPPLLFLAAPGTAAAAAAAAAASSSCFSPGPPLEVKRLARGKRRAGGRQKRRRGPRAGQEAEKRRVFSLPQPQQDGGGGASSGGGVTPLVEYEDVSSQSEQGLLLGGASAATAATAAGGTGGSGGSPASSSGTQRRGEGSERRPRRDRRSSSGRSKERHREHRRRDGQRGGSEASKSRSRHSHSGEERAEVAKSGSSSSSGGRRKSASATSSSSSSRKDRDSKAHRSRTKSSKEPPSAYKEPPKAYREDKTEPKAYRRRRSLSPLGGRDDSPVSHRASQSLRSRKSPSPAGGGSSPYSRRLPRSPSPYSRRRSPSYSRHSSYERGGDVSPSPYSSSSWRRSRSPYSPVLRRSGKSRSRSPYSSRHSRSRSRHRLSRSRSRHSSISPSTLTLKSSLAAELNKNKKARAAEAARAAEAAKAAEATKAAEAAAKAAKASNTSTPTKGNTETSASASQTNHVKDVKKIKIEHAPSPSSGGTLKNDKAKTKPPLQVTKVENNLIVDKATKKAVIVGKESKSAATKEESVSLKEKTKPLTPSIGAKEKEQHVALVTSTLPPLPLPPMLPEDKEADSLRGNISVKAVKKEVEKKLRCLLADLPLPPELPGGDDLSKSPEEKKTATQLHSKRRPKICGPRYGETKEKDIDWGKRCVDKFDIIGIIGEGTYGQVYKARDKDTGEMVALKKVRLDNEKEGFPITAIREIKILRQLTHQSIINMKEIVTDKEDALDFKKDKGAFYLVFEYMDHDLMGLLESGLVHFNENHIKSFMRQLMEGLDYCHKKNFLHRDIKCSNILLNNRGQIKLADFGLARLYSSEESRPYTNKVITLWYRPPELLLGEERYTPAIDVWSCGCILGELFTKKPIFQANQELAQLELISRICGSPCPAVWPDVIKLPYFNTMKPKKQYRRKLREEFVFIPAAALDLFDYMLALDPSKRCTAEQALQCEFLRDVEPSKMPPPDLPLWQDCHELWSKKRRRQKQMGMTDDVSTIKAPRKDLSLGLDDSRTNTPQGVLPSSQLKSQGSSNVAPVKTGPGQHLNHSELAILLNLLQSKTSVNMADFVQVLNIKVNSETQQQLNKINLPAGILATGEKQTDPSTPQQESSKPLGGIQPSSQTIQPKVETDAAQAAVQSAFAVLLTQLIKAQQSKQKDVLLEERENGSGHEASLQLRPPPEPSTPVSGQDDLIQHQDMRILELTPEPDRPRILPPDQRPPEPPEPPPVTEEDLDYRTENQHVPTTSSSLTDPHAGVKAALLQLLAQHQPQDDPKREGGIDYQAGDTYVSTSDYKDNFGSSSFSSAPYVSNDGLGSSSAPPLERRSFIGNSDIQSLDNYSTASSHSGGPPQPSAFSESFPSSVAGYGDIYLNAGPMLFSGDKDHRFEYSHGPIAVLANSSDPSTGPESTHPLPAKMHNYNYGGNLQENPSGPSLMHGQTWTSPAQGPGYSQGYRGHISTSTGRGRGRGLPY
Method: as §1

EPHB6 = biological target: T4, EPHB6 (Homo sapiens, UniProt O15197)
T4 construct: endogenous in cells; host or cells: K562
T4 sequence (O15197 32-1021): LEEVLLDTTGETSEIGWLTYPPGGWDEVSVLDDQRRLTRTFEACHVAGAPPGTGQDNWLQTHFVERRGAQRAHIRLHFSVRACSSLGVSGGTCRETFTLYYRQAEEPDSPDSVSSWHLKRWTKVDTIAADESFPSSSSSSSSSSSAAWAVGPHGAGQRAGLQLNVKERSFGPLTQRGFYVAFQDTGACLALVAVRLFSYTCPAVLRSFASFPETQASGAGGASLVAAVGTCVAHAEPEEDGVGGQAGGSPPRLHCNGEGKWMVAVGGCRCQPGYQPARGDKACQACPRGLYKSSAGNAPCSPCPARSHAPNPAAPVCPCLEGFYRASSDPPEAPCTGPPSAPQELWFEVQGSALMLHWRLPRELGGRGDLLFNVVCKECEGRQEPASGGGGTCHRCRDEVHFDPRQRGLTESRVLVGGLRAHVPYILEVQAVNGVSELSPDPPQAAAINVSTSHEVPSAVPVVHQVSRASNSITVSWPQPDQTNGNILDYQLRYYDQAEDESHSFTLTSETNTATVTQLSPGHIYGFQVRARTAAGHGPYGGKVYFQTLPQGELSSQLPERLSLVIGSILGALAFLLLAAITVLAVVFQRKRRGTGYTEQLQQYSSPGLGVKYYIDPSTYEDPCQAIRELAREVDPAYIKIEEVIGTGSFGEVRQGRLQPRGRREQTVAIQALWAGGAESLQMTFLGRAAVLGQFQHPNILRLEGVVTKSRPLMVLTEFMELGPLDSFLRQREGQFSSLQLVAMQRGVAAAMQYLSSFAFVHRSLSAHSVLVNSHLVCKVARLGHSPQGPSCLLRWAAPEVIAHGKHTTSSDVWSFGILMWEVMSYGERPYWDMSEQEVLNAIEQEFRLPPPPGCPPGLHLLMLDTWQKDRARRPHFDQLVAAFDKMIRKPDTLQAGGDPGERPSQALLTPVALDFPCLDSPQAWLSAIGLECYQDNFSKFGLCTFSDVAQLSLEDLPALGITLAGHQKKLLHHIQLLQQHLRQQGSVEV
Method: as §1

PRKACA = biological target: T5, PRKACA (Homo sapiens, UniProt P17612);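 on 0.001 uM KAM: median log10 fold change of treatment over DMSO control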;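 on 0.01 uM KAM: median log10 fold change of treatment over DMSO control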;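 on 0.1 uM KAM: median log10 fold change of treatment over DMSO control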;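 on 1 uM KAM: median log10 fold change of treatment over DMSO control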;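 on 10 uM KAM: median log10 fold change of treatment over DMSO control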
T5 construct: endogenous in cells; host or cells: K562 lysate
Method: as §1

STK24 = biological target: T6, STK24 (Homo sapiens, UniProt Q9Y6E0);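 on 0.001 uM KAM: median log10 fold change of treatment over DMSO control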;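 on 0.01 uM KAM: median log10 fold change of treatment over DMSO control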;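 on 0.1 uM KAM: median log10 fold change of treatment over DMSO control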;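 on 1 uM KAM: median log10 fold change of treatment over DMSO control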;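 on 10 uM KAM: median log10 fold change of treatment over DMSO control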
T6 construct: endogenous in cells; host or cells: K562
T6 sequence (Q9Y6E0 whole entry): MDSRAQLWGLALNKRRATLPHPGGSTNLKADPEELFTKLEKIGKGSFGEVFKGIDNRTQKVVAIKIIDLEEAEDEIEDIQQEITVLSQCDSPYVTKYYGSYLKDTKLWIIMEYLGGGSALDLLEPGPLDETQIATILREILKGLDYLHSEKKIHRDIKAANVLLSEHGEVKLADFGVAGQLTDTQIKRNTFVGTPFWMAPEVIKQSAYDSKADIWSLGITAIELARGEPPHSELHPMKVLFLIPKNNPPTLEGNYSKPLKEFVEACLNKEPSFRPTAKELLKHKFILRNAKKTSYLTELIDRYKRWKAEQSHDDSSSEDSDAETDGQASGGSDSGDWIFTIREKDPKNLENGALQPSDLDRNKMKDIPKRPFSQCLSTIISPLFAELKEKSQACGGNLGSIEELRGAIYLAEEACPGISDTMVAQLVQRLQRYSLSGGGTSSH
Method: as §1

TNK2 = biological target: T7, TNK2 (Homo sapiens, UniProt Q07912);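 on 0.001 uM KAM: median log10 fold change of treatment over DMSO control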;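 on 0.01 uM KAM: median log10 fold change of treatment over DMSO control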;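 on 0.1 uM KAM: median log10 fold change of treatment over DMSO control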;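 on 1 uM KAM: median log10 fold change of treatment over DMSO control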;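 on 10 uM KAM: median log10 fold change of treatment over DMSO control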
T7 construct: endogenous in cells; host or cells: K562
T7 sequence (Q07912 whole entry): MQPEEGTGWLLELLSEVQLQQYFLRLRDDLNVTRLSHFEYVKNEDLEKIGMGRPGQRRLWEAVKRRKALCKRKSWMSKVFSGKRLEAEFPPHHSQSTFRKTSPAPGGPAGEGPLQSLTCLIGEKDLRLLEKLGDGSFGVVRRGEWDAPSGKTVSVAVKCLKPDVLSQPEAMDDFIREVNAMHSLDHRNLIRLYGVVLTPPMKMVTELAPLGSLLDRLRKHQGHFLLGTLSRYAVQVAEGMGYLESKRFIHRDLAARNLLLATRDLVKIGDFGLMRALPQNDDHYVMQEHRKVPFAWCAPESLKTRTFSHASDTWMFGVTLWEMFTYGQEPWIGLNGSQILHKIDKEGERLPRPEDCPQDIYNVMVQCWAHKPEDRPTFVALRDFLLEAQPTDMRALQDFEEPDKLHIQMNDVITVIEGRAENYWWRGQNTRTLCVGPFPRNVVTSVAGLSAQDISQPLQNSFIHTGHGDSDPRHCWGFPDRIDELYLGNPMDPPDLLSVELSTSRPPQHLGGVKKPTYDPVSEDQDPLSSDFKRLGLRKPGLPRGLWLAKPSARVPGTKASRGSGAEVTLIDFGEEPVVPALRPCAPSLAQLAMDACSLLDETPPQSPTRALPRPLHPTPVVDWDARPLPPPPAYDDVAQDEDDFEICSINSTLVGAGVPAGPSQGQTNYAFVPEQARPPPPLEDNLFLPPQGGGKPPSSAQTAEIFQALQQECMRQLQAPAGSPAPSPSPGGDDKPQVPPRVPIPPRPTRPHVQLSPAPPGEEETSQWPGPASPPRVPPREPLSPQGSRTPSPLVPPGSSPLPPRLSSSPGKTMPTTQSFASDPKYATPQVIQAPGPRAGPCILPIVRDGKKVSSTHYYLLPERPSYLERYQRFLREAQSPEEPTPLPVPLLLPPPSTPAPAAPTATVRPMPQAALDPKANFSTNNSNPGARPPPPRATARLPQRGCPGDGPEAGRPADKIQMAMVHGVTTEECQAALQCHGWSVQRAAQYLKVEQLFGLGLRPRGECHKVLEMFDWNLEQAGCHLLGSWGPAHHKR
Method: as §1

[1] = read-out: RB50 (the source's name)
[2] = KAM 0.001-10 uM, read-out: RB50 (the source's name)

Which “median Log10 fold change” value (AURKB; 0.001 uM KAM) does the source give for `N#CCc1ccc(Nc2nc(NCCCN)cc(Nc3cc(C4CC4)[nH]n3)n2)cc1` [KAM] here?
The value was 0.001732.

What about the “median Log10 fold change” value (AURKB; 0.01 uM KAM) of the same compound?
The value was -0.09106.

And the “median Log10 fold change” value (AURKB; 0.1 uM KAM)?
Its value is -0.3265.

And the “median Log10 fold change” value (AURKB; 1 uM KAM)?
The value was -0.4096.

And the “median Log10 fold change” value (AURKB; 10 uM KAM)?
The value was -0.3913.

And the IC50 (AURKB; [1])?
Its IC50 is 137 nM.

And the IC50 (BMPR2; [2])?
Its IC50 is 6670 nM.

What about the “0.001 uM KAM” value (BMPR2; relative to 0 uM KAM = 0) of the same compound?
Its value is 0.0006826.

What about the “0.01 uM KAM” value (BMPR2; relative to 0 uM KAM = 0) of the same compound?
The value was -0.02948.

What about the “0.1 uM KAM” value (BMPR2; relative to 0 uM KAM = 0) of the same compound?
Its value is -0.09644.

And the “1 uM KAM” value (BMPR2; relative to 0 uM KAM = 0)?
The value was -0.1591.

What about the “10 uM KAM” value (BMPR2; relative to 0 uM KAM = 0) of the same compound?
Its value is -0.3053.

What about the “median Log10 fold change” value (CDK13; 0.001 uM KAM) of the same compound?
The value was -0.01353.

What about the “median Log10 fold change” value (CDK13; 0.01 uM KAM) of the same compound?
Its value is -0.006338.

What about the “median Log10 fold change” value (CDK13; 0.1 uM KAM) of the same compound?
The value was -0.0866.

And the “median Log10 fold change” value (CDK13; 1 uM KAM)?
Its value is -0.2891.

What about the “median Log10 fold change” value (CDK13; 10 uM KAM) of the same compound?
Its value is -0.4319.

And the IC50 (CDK13; [1])?
The IC50 was 1480 nM.

And the “median Log10 fold change” value (EPHB6; 0.001 uM KAM)?
Its value is -0.01655.

And the “median Log10 fold change” value (EPHB6; 0.01 uM KAM)?
Its value is -0.02112.

What about the “median Log10 fold change” value (EPHB6; 0.1 uM KAM) of the same compound?
The value was -0.1129.

What about the “median Log10 fold change” value (EPHB6; 1 uM KAM) of the same compound?
The value was -0.2258.

What about the “median Log10 fold change” value (EPHB6; 10 uM KAM) of the same compound?
Its value is -0.3985.

What about the IC50 (EPHB6; [1]) of the same compound?
Its IC50 is 2510 nM.

What about the IC50 (PRKACA; [2]) of the same compound?
Its IC50 is greater than 10000 nM.

What about the “0.001 uM KAM” value (PRKACA; relative to 0 uM KAM = 0) of the same compound?
The value was 0.01517.

What about the “0.01 uM KAM” value (PRKACA; relative to 0 uM KAM = 0) of the same compound?
The value was -0.007672.

What about the “0.1 uM KAM” value (PRKACA; relative to 0 uM KAM = 0) of the same compound?
Its value is 0.08573.

What about the “1 uM KAM” value (PRKACA; relative to 0 uM KAM = 0) of the same compound?
Its value is 0.0122.

What about the “10 uM KAM” value (PRKACA; relative to 0 uM KAM = 0) of the same compound?
The value was 0.04616.

What about the IC50 (STK24; [2]) of the same compound?
Its IC50 is greater than 10000 nM.

What about the “0.001 uM KAM” value (STK24; relative to 0 uM KAM = 0) of the same compound?
Its value is -0.01012.

What about the “0.01 uM KAM” value (STK24; relative to 0 uM KAM = 0) of the same compound?
Its value is -0.03939.

What about the “0.1 uM KAM” value (STK24; relative to 0 uM KAM = 0) of the same compound?
The value was -0.06162.

What about the “1 uM KAM” value (STK24; relative to 0 uM KAM = 0) of the same compound?
The value was -0.2602.

And the “10 uM KAM” value (STK24; relative to 0 uM KAM = 0)?
The value was -0.2058.

And the IC50 (TNK2; [2])?
Its IC50 is greater than 10000 nM.

What about the “0.001 uM KAM” value (TNK2; relative to 0 uM KAM = 0) of the same compound?
Its value is 0.001973.

And the “0.01 uM KAM” value (TNK2; relative to 0 uM KAM = 0)?
The value was -0.007052.

And the “0.1 uM KAM” value (TNK2; relative to 0 uM KAM = 0)?
Its value is -0.06006.

What about the “1 uM KAM” value (TNK2; relative to 0 uM KAM = 0) of the same compound?
The value was -0.2026.

And the “10 uM KAM” value (TNK2; relative to 0 uM KAM = 0)?
Its value is -0.2086.
